The text below walks through data of ChEMBL document CHEMBL4819120, “Identification of non-covalent 3C-like protease inhibitors against severe acute respiratory syndrome coronavirus-2 via virtual screening of a Korean compound library” (Bioorg Med Chem Lett, 2021).

The structures appear in SMILES notation.

The test system of one data set is Vero C1008. In words: Cytotoxicity against African green monkey Vero E6 cells. Type of data set: cell-based. The conditions noted are these: chlorocebus sabaeus.
A short description of data set [1]: Inhibition of SARS-CoV-2 3CL protease using DABCYL-KTSAVLQ-SGFRKME-EDANS fluorogenic peptide as substrate by fluorescence assay. Set-up: species or system Severe acute respiratory syndrome coronavirus 2.
The next data set relates to SARS-CoV-2. Kind of data set: microbe, parasite or virus in culture. The settings on record: Severe acute respiratory syndrome coronavirus 2, Vero C1008.

Description for SARS-CoV-2: Antiviral activity against SARS-CoV-2 infected in monkey Vero E6 cells

`Cc1cc(C)cc(Nc2nc(C)cc3nn(CC(=O)Nc4cc(F)ccc4F)c(=O)n23)c1`: the CC50 (in general, the concentration at which the toxic effect on the cells reaches its halfway point) in the data set on Vero C1008 stood at 469 µM. For the same molecule, the IC50 (in general, the concentration that inhibits the measured activity by half) in data set [1] came to 8 µM. In addition, the EC50 (as a rule, the midpoint of the concentration-response curve) with SARS-CoV-2 was 141 µM.
As for `Cc1ccc(Cl)cc1NC(=O)Cn1nc2c(Oc3ccc(C(C)C)cc3)nccn2c1=O`, the IC50 in data set [1] was determined as 8.9 µM.
Same read-out and setting: for `Cc1ccc(Cn2c(=O)c3ccccc3n3c(=O)n(CC(=O)Nc4ccc(F)cc4F)nc23)cc1` the value was 9.5 µM.
`Cc1cc(C)cc(Nc2nc(C)cc3nn(CC(=O)Nc4ccccc4F)c(=O)n23)c1` came in with an IC50 in data set [1] of 10.9 µM.
Turning to `O=C(Cn1c2ccccc2n2c(=O)cc(-c3ccc(Cl)cc3)nc12)Nc1ccc(F)cc1F`, the CC50 in the data set on Vero C1008 is 454 µM. This molecule also had an IC50 in data set [1] of 5.7 µM. The midpoint of the response in the data set with SARS-CoV-2, the EC50, lay at 39.9 µM.
`Cc1cc2nn(CC(=O)Nc3ccccc3F)c(=O)n2c(Nc2ccccc2C)n1`: inhibition in data set [1] was half-maximal at 8.7 µM (IC50).
On the same count and under the same terms, next, `CCc1ccc(NC(=O)Cn2nc3n(Cc4ccc(F)cc4)c(=O)c4ccccc4n3c2=O)cc1`: 12.1 µM.
